Data published in ChEMBL document CHEMBL5576037, “Discovery of the first ataxia telangiectasia and Rad3-related (ATR) degraders for cancer treatment” (Eur J Med Chem, 2024).
Active and inactive are the calls of the source. No cut-off for these calls is given here.

Tests used:
[1] = molecular target: DNA-dependent protein kinase catalytic subunit (Homo sapiens) (UniProt P78527); experiment: Induction of DNA-PK degradation in human LoVo cells at 0.16 to 10 uM incubated for 72 hrs by Western blot analysis; format: cell-based; conditions: dose 0.16-10 µM
[2] = Half-life in BALB/c nude mouse xenografted with human LoVo cells at 25 mg/kg, ip administered as single dose and measured after 12 hrs by LC-MS/MS analysis; format: ADME, organism-based; conditions: in vivo
[3] = molecular target: T1, ATPase family gene 2 protein homolog B (Homo sapiens) (UniProt Q9BVQ7); experiment: Induction of SPATA5L1 degradation in human LoVo cells at 1 uM incubated for 24 hrs by global proteomic profiling analysis; format: cell-based
T1 sequence (whole entry): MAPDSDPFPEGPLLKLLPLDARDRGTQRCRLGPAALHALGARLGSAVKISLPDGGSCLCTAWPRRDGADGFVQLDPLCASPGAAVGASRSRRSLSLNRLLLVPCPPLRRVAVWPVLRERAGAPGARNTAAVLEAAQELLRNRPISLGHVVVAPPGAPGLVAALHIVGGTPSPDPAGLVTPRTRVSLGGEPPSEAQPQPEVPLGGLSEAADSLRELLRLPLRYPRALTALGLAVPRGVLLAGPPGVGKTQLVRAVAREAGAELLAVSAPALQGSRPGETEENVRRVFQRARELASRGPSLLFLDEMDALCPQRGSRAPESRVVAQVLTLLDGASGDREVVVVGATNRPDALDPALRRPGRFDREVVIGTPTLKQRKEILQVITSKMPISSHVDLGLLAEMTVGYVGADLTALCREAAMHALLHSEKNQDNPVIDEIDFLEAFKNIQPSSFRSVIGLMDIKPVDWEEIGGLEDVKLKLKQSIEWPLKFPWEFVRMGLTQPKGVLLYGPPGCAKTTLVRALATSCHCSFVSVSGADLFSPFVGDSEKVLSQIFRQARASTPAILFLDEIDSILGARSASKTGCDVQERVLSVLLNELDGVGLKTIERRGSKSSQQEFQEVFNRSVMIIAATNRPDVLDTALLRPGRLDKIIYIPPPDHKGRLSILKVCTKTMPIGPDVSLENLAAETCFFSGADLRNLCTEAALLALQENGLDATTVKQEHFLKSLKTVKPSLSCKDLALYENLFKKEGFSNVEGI

[4] = molecular target: T2, Protein cereblon/Serine/threonine-protein kinase ATR (Homo sapiens, UniProt Q13535+Q96SW2); experiment: PROTAC activity at CRBN/ATR in human LoVo cells assessed as induction of ATR degradation at 2.5 uM incubated for 4 hrs by Western blot analysis; format: cell-based
[5] = molecular target: T2, Protein cereblon/Serine/threonine-protein kinase ATR; experiment: PROTAC activity at CRBN/ATR in human LoVo cells assessed as induction of ATR degradation at 2.5 uM preincubated with MG132 for 4 hrs followed by compound addition and measured after 48 hrs by Western blot analysis; format: cell-based

T2 sequence (Q13535 whole entry, looked up): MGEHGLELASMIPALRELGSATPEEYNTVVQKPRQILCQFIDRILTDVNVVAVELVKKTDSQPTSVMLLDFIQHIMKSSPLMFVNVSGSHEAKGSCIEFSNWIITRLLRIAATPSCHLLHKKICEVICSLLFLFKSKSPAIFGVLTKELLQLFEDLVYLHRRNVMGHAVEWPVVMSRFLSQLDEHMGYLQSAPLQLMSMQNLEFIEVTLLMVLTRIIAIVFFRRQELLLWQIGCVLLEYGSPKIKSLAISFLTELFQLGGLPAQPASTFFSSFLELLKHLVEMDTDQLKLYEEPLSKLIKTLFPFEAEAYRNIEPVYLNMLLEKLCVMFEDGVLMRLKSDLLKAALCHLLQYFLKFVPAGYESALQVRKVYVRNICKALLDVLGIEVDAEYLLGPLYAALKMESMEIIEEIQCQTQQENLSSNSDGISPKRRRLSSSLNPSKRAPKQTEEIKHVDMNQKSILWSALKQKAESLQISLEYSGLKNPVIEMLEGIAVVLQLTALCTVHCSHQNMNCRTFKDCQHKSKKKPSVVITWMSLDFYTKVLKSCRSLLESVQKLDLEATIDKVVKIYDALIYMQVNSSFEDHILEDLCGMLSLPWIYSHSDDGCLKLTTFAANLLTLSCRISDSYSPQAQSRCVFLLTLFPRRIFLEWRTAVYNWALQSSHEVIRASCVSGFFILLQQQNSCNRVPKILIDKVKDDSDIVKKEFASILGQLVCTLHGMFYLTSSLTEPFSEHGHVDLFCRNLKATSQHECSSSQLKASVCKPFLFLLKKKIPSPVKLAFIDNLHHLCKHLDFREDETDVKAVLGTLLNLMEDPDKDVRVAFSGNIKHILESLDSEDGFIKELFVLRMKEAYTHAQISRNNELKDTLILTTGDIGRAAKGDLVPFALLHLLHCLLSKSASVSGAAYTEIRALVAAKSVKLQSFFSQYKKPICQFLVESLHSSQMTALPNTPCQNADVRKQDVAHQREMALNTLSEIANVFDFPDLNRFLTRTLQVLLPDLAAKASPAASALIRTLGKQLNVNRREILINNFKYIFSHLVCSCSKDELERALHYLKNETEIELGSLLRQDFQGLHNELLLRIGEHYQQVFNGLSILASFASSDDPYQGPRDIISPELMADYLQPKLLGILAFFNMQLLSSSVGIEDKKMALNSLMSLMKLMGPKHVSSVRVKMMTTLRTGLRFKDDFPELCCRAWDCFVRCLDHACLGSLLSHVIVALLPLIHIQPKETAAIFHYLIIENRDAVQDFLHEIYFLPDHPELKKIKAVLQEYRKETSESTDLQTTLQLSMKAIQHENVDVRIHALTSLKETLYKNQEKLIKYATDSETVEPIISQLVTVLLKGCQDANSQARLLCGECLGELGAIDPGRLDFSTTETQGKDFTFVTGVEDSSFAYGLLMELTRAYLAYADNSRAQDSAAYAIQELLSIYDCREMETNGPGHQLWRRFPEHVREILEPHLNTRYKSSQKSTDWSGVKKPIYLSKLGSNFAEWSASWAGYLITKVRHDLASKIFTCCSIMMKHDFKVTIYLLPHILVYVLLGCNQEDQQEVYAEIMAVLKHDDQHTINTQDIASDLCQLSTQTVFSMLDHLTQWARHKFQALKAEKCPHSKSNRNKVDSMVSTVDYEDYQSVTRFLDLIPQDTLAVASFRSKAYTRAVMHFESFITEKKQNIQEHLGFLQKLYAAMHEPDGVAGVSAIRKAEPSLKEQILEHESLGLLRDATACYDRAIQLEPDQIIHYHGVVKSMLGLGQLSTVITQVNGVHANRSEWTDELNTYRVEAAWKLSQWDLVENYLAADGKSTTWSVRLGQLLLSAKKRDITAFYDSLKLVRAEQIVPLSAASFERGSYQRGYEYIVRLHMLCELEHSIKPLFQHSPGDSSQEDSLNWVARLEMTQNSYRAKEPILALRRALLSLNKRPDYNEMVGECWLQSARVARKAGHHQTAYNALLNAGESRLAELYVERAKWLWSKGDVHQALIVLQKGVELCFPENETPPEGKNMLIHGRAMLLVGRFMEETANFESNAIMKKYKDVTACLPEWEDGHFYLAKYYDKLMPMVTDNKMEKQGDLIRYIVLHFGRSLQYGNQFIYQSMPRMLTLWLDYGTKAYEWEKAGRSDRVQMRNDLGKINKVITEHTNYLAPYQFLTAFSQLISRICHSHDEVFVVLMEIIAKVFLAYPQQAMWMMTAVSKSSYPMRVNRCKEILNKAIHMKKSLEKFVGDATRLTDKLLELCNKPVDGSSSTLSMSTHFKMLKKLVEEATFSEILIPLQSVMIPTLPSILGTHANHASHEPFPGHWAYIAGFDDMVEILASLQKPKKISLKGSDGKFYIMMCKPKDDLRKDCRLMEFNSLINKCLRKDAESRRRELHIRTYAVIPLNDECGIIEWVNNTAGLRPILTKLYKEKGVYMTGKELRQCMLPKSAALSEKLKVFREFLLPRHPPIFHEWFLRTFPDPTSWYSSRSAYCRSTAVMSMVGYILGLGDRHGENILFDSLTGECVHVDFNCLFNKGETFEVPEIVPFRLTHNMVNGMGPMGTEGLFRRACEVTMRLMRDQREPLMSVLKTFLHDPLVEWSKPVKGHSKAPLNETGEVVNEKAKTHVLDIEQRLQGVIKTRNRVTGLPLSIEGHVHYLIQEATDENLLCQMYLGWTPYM
T2 sequence (Q96SW2 whole entry, looked up): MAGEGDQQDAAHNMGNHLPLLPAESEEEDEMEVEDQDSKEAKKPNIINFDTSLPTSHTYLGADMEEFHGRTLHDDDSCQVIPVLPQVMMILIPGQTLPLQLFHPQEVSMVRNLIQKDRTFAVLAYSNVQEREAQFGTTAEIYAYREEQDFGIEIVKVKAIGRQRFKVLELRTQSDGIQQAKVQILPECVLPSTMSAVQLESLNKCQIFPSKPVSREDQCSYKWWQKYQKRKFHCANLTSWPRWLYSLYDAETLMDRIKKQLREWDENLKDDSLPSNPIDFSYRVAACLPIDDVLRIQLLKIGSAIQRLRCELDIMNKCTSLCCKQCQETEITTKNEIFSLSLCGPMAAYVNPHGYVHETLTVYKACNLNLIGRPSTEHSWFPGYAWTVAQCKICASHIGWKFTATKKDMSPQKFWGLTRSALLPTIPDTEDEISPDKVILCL

For `C[C@@H]1COCCN1c1cc(C2([S@@](C)(=O)=NC(=O)CCc3cn(CCCCCCCC(=O)Nc4cccc5c4C(=O)N(C4CCC(=O)NC4=O)C5=O)nn3)CC2)nc(-c2ccnc3[nH]ccc23)n1` (stereo not given in full), the Activity [1] was “inactive”, the half-life [2] was 4.75 h and the Activity [3] was “Active”. The Activity [4] was “Active” and the Activity [5] was “inactive”.
